# According to ChEMBL document CHEMBL1201862, “PubChem BioAssay data set” (2004):
#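 Compound exposure: 48 hours, 5 concentrations, 96-well plates. Abbreviation: GI50, concentration required for 50% inhibition of growth.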 Calls of active or inactive are those of the source. Cut-off read from the data, not from the text of the source: active = GI50 up to about 1.1 µM and inactive = higher.
# Experiments:
# Assay in all cases: NCI-60 cell line screen, 48 h
# OVCAR-3 = tested on: OVCAR-3
# SK-MEL-5 = tested on: SK-MEL-5
# HCT-116 = tested on: HCT-116
# HT-29 = tested on: HT-29
# TK-10 = tested on: TK-10
# EKVX = tested on: EKVX
# T47D = tested on: T47D
# KM12 = tested on: KM12
# NCI/ADR-RES = tested on: NCI/ADR-RES
# NCI-H23 = tested on: NCI-H23
# PC-3 = tested on: PC-3
# SNB-78 = tested on: SNB-78
# M19-MEL = tested on: M19-MEL
# LXFL 529 = tested on: LXFL 529
# Hs-578T = tested on: Hs-578T
# HL-60 = tested on: HL-60
# UACC-257 = tested on: UACC-257
# KM-20L2 = tested on: KM-20L2
# MCF7 = tested on: MCF7
# UACC-62 = tested on: UACC-62
# DLD-1 = tested on: DLD-1
# COLO 205 = tested on: COLO 205
# SF-295 = tested on: SF-295
# IGROV-1 = tested on: IGROV-1
# NCI-H460 = tested on: NCI-H460
# 786-0 = tested on: 786-0
# DMS-114 = tested on: DMS-114
# SR = tested on: SR
# SW-620 = tested on: SW-620
# K562 = tested on: K562
# MDA-MB-435 = tested on: MDA-MB-435
# HOP-92 = tested on: HOP-92
# A549 = tested on: A549
# SK-MEL-2 = tested on: SK-MEL-2
# BT-549 = tested on: BT-549
# NCI-H522 = tested on: NCI-H522
# OVCAR-5 = tested on: OVCAR-5
# Malme-3M = tested on: Malme-3M
# CAKI-1 = tested on: CAKI-1
# SK-MEL-28 = tested on: SK-MEL-28
# ACHN = tested on: ACHN
# MDA-MB-231 = tested on: MDA-MB-231
# M14 = tested on: M14
# MOLT-4 = tested on: MOLT-4
# UO-31 = tested on: UO-31
# SNB-75 = tested on: SNB-75
# OVCAR-4 = tested on: OVCAR-4
# RPMI-8226 = tested on: RPMI-8226
# OVCAR-8 = tested on: OVCAR-8
# SN12C = tested on: SN12C
# CCRF-CEM = tested on: CCRF-CEM
# U-251 = tested on: U-251
# DMS-273 = tested on: DMS-273
# DU-145 = tested on: DU-145
# LOX IMVI = tested on: LOX IMVI
# HCT-15 = tested on: HCT-15
# RXF 393 = tested on: RXF 393
# MDA-N = tested on: MDA-N
# SK-OV-3 = tested on: SK-OV-3
# HOP-62 = tested on: HOP-62
# SNB-19 = tested on: SNB-19
# SF-539 = tested on: SF-539
# SF-268 = tested on: SF-268
# HCC 2998 = tested on: HCC 2998
# A498 = tested on: A498
# XF498 = tested on: XF498
# NCI-H226 = tested on: NCI-H226
# HOP-18 = tested on: HOP-18
smiles,measurement,setting,value
COc1ccc(N2C(=O)[C@H]3CC(C)c4c([nH]c5ccccc45)[C@H]3C2=O)cc1 (stereo partly specified),GI50,OVCAR-3,1.87 µM (inactive)
same,GI50,SK-MEL-5,2.31 µM (inactive)
same,GI50,HCT-116,3.37 µM (inactive)
same,GI50,HT-29,2.92 µM (inactive)
same,GI50,TK-10,9.86 µM (inactive)
same,GI50,EKVX,24 µM (inactive)
same,GI50,T47D,4.26 µM (inactive)
same,GI50,KM12,2.77 µM (inactive)
same,GI50,NCI/ADR-RES,1.63 µM (inactive)
same,GI50,NCI-H23,3.8 µM (inactive)
same,GI50,PC-3,1.66 µM (inactive)
same,GI50,SNB-78,5.08 µM (inactive)
same,GI50,M19-MEL,2.13 µM (inactive)
same,GI50,LXFL 529,4.14 µM (inactive)
same,GI50,Hs-578T,1.88 µM (inactive)
same,GI50,HL-60,1.83 µM (inactive)
same,GI50,UACC-257,4.6 µM (inactive)
same,GI50,KM-20L2,2.99 µM (inactive)
same,GI50,MCF7,2.25 µM (inactive)
same,GI50,UACC-62,1.31 µM (inactive)
same,GI50,DLD-1,3.54 µM (inactive)
same,GI50,COLO 205,2.5 µM (inactive)
same,GI50,SF-295,1.74 µM (inactive)
same,GI50,IGROV-1,4.41 µM (inactive)
same,GI50,NCI-H460,3.69 µM (inactive)
same,GI50,786-0,3.48 µM (inactive)
same,GI50,DMS-114,2.01 µM (inactive)
same,GI50,SR,2.15 µM (inactive)
same,GI50,SW-620,2.87 µM (inactive)
same,GI50,K562,1.15 µM (inactive)
same,GI50,MDA-MB-435,0.611 µM (active)
same,GI50,HOP-92,4.65 µM (inactive)
same,GI50,A549,5.85 µM (inactive)
same,GI50,SK-MEL-2,2.24 µM (inactive)
same,GI50,BT-549,8.83 µM (inactive)
same,GI50,NCI-H522,1.1 µM (active)
same,GI50,OVCAR-5,33.7 µM (inactive)
same,GI50,Malme-3M,2.11 µM (inactive)
same,GI50,CAKI-1,3.08 µM (inactive)
same,GI50,SK-MEL-28,4.82 µM (inactive)
same,GI50,ACHN,6.92 µM (inactive)
same,GI50,MDA-MB-231,6.35 µM (inactive)
same,GI50,M14,2.48 µM (inactive)
same,GI50,MOLT-4,3.78 µM (inactive)
same,GI50,UO-31,5.61 µM (inactive)
same,GI50,SNB-75,2.03 µM (inactive)
same,GI50,OVCAR-4,5.98 µM (inactive)
same,GI50,RPMI-8226,3.48 µM (inactive)
same,GI50,OVCAR-8,5.64 µM (inactive)
same,GI50,SN12C,6.38 µM (inactive)
same,GI50,CCRF-CEM,2.49 µM (inactive)
same,GI50,U-251,3.15 µM (inactive)
same,GI50,DMS-273,1.51 µM (inactive)
same,GI50,DU-145,4.7 µM (inactive)
same,GI50,LOX IMVI,4.6 µM (inactive)
same,GI50,HCT-15,2.72 µM
same,GI50,RXF 393,1.53 µM (inactive)
same,GI50,MDA-N,0.681 µM (active)
same,GI50,SK-OV-3,2.4 µM (inactive)
same,GI50,HOP-62,2.15 µM (inactive)
same,GI50,SNB-19,5.66 µM (inactive)
same,GI50,SF-539,2.77 µM (inactive)
same,GI50,SF-268,10.3 µM (inactive)
same,GI50,HCC 2998,3.65 µM (inactive)
same,GI50,A498,8.15 µM (inactive)
same,GI50,XF498,4.76 µM (inactive)
same,GI50,NCI-H226,5.66 µM (inactive)
CC(C)[C@](O)(C(=O)OCC1=CCN2CC[C@@H](O)[C@@H]12)[C@H](C)O,GI50,OVCAR-3,> 375 µM (inactive)
same,GI50,SK-MEL-5,> 80.7 µM (inactive)
same,GI50,HCT-116,> 375 µM (inactive)
same,GI50,HT-29,> 375 µM (inactive)
same,GI50,EKVX,> 375 µM (inactive)
same,GI50,KM12,> 375 µM (inactive)
same,GI50,NCI/ADR-RES,> 375 µM (inactive)
same,GI50,NCI-H23,> 375 µM (inactive)
same,GI50,SNB-78,> 375 µM (inactive)
same,GI50,M19-MEL,> 255 µM (inactive)
same,GI50,HOP-18,> 375 µM (inactive)
same,GI50,HL-60,> 375 µM (inactive)
same,GI50,UACC-257,> 375 µM (inactive)
same,GI50,KM-20L2,> 375 µM (inactive)
same,GI50,MCF7,> 375 µM (inactive)
same,GI50,UACC-62,> 375 µM (inactive)
same,GI50,DLD-1,> 375 µM (inactive)
same,GI50,COLO 205,> 375 µM (inactive)
same,GI50,SF-295,> 375 µM (inactive)
same,GI50,IGROV-1,> 308 µM (inactive)
same,GI50,NCI-H460,> 367 µM (inactive)
same,GI50,DMS-114,368 µM (inactive)
same,GI50,SW-620,> 237 µM (inactive)
same,GI50,K562,> 375 µM (inactive)
same,GI50,HOP-92,> 375 µM (inactive)
same,GI50,A549,> 375 µM (inactive)
same,GI50,SK-MEL-2,> 375 µM (inactive)
same,GI50,NCI-H522,59.4 µM (inactive)
same,GI50,OVCAR-5,> 278 µM (inactive)
same,GI50,Malme-3M,> 375 µM (inactive)
same,GI50,CAKI-1,> 375 µM (inactive)
same,GI50,SK-MEL-28,> 375 µM (inactive)
same,GI50,MOLT-4,> 375 µM (inactive)
same,GI50,UO-31,> 375 µM (inactive)
same,GI50,SNB-75,> 375 µM (inactive)
same,GI50,OVCAR-4,> 375 µM (inactive)
same,GI50,RPMI-8226,> 375 µM (inactive)
same,GI50,OVCAR-8,> 375 µM (inactive)
same,GI50,SN12C,> 375 µM (inactive)
same,GI50,CCRF-CEM,> 375 µM (inactive)
same,GI50,U-251,> 375 µM (inactive)
same,GI50,DMS-273,> 375 µM (inactive)
same,GI50,LOX IMVI,> 174 µM (inactive)
same,GI50,HCT-15,> 375 µM
same,GI50,RXF 393,> 375 µM (inactive)
same,GI50,SK-OV-3,> 375 µM (inactive)
same,GI50,HOP-62,> 335 µM (inactive)
same,GI50,SNB-19,> 375 µM (inactive)
same,GI50,SF-539,> 375 µM (inactive)
same,GI50,SF-268,> 375 µM (inactive)
same,GI50,HCC 2998,> 375 µM (inactive)
same,GI50,A498,> 375 µM (inactive)
same,GI50,XF498,> 375 µM (inactive)
same,GI50,NCI-H226,> 375 µM (inactive)
